Where a name gives a salt, the structure may show the parent alone.

The target of data set [1] is T1, NMDA-receptor subtype 2B (Rattus norvegicus, UniProt P35439+Q00960).
T1 construct: Membranes were prepared by homogenization of the whole brain minus cerebellum and medulla oblongata; from tissue; host or cells: rat whole brain minus cerebellum and medulla oblongata, membrane preparation
In words: 3H-Ro 25-6981 binding (displacement) on rat brain membranes. The following applies: displacement of 5 nM 3H-Ro 25-6981, rat whole brain membranes (minus cerebellum and medulla oblongata), 2 hours at 4° C. The protocol:
^3H[R-(R*,S*)]-(α-(4-Hydroxy-phenyl)-β-methyl-4-(phenyl-methyl)-1-piperidine propanol)binding
Male Füllinsdorf albino rats weighing between 150-200 g were used. Membranes were prepared by homogenization of the whole brain minus cerebellum and medulla oblongata with a Polytron (10.000 rpm, 30 seconds), in 25 volumes of a cold Tris-HCl 50 mM, EDTA 10 mM, pH 7.1 buffer. The homogenate was centrifuged at 48,000 g for 10 minutes at 4° C. The pellet was resuspended using the Polytron in the same volume of buffer and the homogenate was incubated at 37° C. for 10 minutes. After centrifugation the pellet was homogenized in the same buffer and frozen at −80° C. for at least 16 hours but not more than 10 days. For the binding assay the homogenate was thawed at 37° C., centrifuged and the pellet was washed three times as above in a Tris-HCl 5 mM, pH 7.4 cold buffer. The final pellet was resuspended in the same buffer and used at a final concentration of […]. ^3H-Ro 25-6981 binding experiments were performed using a Tris-HCl 50 mM, pH 7.4 buffer. For displacement experiments 5 nM of ^3H-Ro 25-6981 were used and non specific binding was measured using 10 mM of tetrahydroisoquinoline and usually it accounts for 10% of the total. The incubation time was 2 hours at 4° C. and the assay was stopped by filtration on Whatmann GF/B glass fiber filters (Unifilter-96, Packard, Zürich, Switzerland). The filters were washed 5 times with cold buffer. The radioactivity on the filter was counted on a Packard Top-count microplate scintillation counter after addition of […] of microscint 40 (Canberra Packard S.A., Zuirich, Switzerland).
The effects of compounds were measured using a minimum of 8 concentrations and repeated at least once.

T1 sequence (Q00960 27-1482, other chains not shown): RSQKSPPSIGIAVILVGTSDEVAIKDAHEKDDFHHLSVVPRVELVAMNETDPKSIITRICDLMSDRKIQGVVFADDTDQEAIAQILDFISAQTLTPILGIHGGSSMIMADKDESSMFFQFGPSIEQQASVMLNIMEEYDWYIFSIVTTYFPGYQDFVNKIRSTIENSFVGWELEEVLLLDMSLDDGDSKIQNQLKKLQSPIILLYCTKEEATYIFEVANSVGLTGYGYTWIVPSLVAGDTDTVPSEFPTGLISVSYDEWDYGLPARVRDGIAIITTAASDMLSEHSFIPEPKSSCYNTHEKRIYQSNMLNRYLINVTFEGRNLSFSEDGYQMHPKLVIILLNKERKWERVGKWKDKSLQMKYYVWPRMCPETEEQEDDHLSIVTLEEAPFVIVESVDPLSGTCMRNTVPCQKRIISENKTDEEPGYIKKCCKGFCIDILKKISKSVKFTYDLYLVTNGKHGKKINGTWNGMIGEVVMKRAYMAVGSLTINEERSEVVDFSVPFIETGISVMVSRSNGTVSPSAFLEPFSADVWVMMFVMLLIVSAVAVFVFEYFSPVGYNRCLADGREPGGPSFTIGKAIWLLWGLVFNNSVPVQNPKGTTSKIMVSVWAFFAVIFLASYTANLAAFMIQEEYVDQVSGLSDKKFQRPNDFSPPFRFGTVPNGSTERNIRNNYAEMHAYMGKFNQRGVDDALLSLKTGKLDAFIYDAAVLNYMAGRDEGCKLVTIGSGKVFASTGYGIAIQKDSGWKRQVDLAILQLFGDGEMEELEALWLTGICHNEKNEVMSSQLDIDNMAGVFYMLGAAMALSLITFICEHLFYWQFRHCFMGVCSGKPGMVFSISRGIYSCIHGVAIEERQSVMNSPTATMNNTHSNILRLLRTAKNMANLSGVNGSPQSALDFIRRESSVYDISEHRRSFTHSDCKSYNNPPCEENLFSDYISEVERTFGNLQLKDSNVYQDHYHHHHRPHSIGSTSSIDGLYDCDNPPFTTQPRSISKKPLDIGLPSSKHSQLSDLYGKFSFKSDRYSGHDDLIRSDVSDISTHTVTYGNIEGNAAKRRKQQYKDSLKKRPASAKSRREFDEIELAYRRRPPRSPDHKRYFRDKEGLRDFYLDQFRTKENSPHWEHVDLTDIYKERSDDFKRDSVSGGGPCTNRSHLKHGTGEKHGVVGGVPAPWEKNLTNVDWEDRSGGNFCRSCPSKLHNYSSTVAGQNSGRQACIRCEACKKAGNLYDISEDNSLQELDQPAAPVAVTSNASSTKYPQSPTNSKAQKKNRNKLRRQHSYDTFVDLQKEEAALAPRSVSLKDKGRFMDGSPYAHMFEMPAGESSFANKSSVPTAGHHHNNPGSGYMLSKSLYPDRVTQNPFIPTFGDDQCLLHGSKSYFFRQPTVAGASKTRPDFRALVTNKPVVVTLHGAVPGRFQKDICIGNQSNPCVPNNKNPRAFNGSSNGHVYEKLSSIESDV

As to `Cc1nccn1Cc1cn(-c2cccc(C(C)(C)C)c2)cn1.Cl.Cl` [Example 183, 1H-Imidazole, 1-[[1-(3-tert-Butylphenyl)-1H-imidazol-4-yl]methyl]-2-methyl-, Hydrochloride (1:2)], the melting point was > 200 °C (dec.). This compound returned an IC50 in data set [1] of 52 nM.
In the same order, the values of `Cc1nccn1Cc1cn(-c2ccc(F)c(C(F)F)c2)cn1.Cl.Cl` [Example 163, 1H-Imidazole, 1-[[1-(3-Difluoromethyl-4-fluorophenyl)-1H-imidazol-4-yl]methyl]-2-methyl-, Hydrochloride (1:2)] are 223 to 225 °C (dec.) and 17 nM.
The matching figures for `Cc1nccn1Cc1cn(-c2ccc3c(c2)OCO3)cn1.Cl.Cl` [Example 52, 1H-Imidazole, 1-[[1-(1,3-Benzodioxol-5-yl)-1H-imidazol-4-yl]methyl]-2-methyl-, Hydrochloride (1:2)]: above 250 °C and 78 nM.
As for `Cc1nccn1Cc1cn(-c2cc(F)cc(C(F)(F)F)c2)cn1.Cl.Cl` [Example 178, 1H-Imidazole, 1-[[1-[3-Fluoro-5(trifluoromethyl)phenyl]-1H-imidazol-4-yl]methyl]-2-methyl-, Hydrochloride (1:2)], the melting point is above 250 °C. This compound also yielded an IC50 in data set [1] of 74 nM.
In the case of `COc1cc(-n2cnc(Cn3ccnc3C)c2)cc(C(F)(F)F)c1.Cl.Cl` [Example 180, 1H-Imidazole, 1-[[1-[3-Methoxy-5(trifluoromethyl)phenyl]-1H-imidazol-4-yl]methyl]-2-methyl-, Hydrochloride (1:2)], the melting point fell in the range of 246 to 247 °C. The concentration for half-maximal inhibition (IC50) in data set [1] is 50 nM.
Consider `Cc1nccn1Cc1cn(-c2ccc(OC(F)(F)F)c(Cl)c2)cn1.Cl.Cl` [Example 186, 1H-Imidazole, 1-[[1-[3-Chloro-4(trifluoromethoxy)phenyl]-1H-imidazol-4-yl]methyl]-2-methyl-, Hydrochloride (1:2)], for which the melting point lay within 221 to 222 °C. Further, in data set [1], the IC50 was determined as 52 nM.
As for `Cc1nccn1Cc1cn(-c2ccc(Cl)c(Cl)c2)cn1.Cl.Cl` [Example 2, 1H-Imidazole, 1-[[1-(3,4-Dichlorophenyl)-1H-imidazol-4-yl]methyl]-2-methyl-, Hydrochloride (1:2)], the melting point is above 250 °C. In addition, the IC50 in data set [1] came to 10 nM.
Regarding `CCc1nccn1Cc1cn(-c2cccc(SC)c2)cn1.Cl.Cl` [Example 166, 1H-Imidazole, 2-Ethyl-1-[[1-[3-(methylthio)phenyl]-1H-imidazol-4-yl]methyl]-, Hydrochloride (1:2)], the melting point is > 200 °C (dec.). For the same compound, the IC50 in data set [1] turned out to be 20 nM.
The matching figures for `Cc1nccn1Cc1cn(-c2cccc(Br)c2)cn1.Cl.Cl` [Example 192, 1H-Imidazole, 1-[[1-(3-Bromophenyl)-1H-imidazol-4-yl]methyl]-2-methyl-, Hydrochloride (1:2)]: 205 to 207 °C and 55 nM.
Turning to `Cc1nccn1Cc1ncn(-c2ccc(Cl)c(Cl)c2)c1C.Cl.Cl` [Example 103, 1H-Imidazole, 1-(3,4-Dichlorophenyl)-5-methyl-4-[(2-methyl-1H-imidazol-1-yl)methyl]-, Hydrochloride (1:2)], the melting point is > 240 °C (dec.). In addition, in data set [1], the IC50 worked out at 43 nM.
For `Cl.Cl.Fc1ccc(-n2cnc(Cn3ccnc3)c2)cc1C(F)F` [Example 165, 1-(3-Difluoromethyl-4-fluoro-phenyl)-4-imidazol-1-ylmethyl-1H-imidazole Hydrochloride (1:2)], the melting point is 239 to 241 °C. The compound also yielded an IC50 in data set [1] of 46 nM.
Regarding `C=Cc1cccc(-n2cnc(Cn3ccnc3C)c2)c1.Cl.Cl` [Example 172, 1H-Imidazole, 2-Methyl-1-[[1-(3-vinylphenyl)-1H-imidazol-4-yl]methyl]-, Hydrochloride (1:2)], the melting point was in the range of 207 to 208 °C. This compound also came in with an IC50 in data set [1] of 24 nM.
With `CCc1nccn1Cc1cn(-c2cccc(OC(F)F)c2)cn1.Cl.Cl` [Example 189, 1H-Imidazole, 1-[[1-[3-(Difluoromethoxy)phenyl]-1H-imidazol-4-yl]methyl]-2-ethyl-, Hydrochloride (1:2)], the melting point lay in the range of 216 to 217 °C. Besides, the IC50 in data set [1] was 53 nM.
In the same order, the values of `Cl.Cl.Nc1nccn1Cc1cn(-c2ccc3c(c2)OCO3)cn1` [Example 224, 1-(1-Benzo[1,3]dioxol-5-yl-1H-imidazol-4-ylmethyl)-1H-imidazol-2-ylamine Hydrochloride (1:2)] are > 245 °C (dec.) and 10 nM.
With `CCc1nccn1Cc1cn(-c2ccc(F)c(C(C)(F)F)c2)cn1` [Example 151, 1H-Imidazole, 1-[[1-1-[3-(1,1-Difluoroethyl)-4-fluorophenyl]-1H-imidazol-4-yl]methyl]-ethyl-, Hydrochloride (1:2)], in data set [1], the IC50 came out at 14 nM.
The same measure, in the same setting: the same measure for “1H-Imidazole, 1-(3,4-Dichlorophenyl)-4-[(4-methyl-1H-imidazol-1-yl)methyl]-, Hydrochloride (1:2) and 1H-Imidazole, 1-(3,4-Dichlorophenyl)-4-[(5-methyl-1H-imidazol-1-yl)methyl]-, Hydrochloride (1:2) (ratio 3:2) [Example 6]”: 45 nM.
`Cc1ccc(-n2cnc(Cn3ccnc3)c2)cc1C` [Example 21] had an IC50 in data set [1] of 43 nM.
Same read-out and setting: for `Cc1nccn1Cc1cncc(-c2cc(F)cc(C(F)(F)F)c2)c1` [Example 227, 3-(3-Fluoro-5-trifluoromethyl-phenyl)-5-(2-methyl-imidazol-1-ylmethyl)-pyridine] the value was 30 nM.
Regarding `Cc1cc(-n2cnc(Cn3ccnc3N)c2)ccc1Cl` [Example 105, 1-[1-(4-Chloro-3-methyl-phenyl)-1H-imidazol-4-yl-methyl]-1H-imidazol-2-yl-amine-, Hydrochloride (1:2)], in data set [1], the IC50 is 1 nM.
In data set [1], `CCc1nccn1Cc1cn(-c2ccc(F)c(C(F)F)c2)cn1` [Example 164, 1H-Imidazole, 1-[[1-(3-Difluoromethyl-4-fluorophenyl)-1H-imidazol-4-yl]methyl]-2-ethyl-, Hydrochloride (1:2)] showed an IC50 of 30 nM.
Still for that read-out and setting: the same measure for `CSc1cccc(-n2cnc(Cn3ccnc3)c2)c1` [Example 168, 4-Imidazol-1-ylmethyl-1-(3-methylsulfanyl-phenyl)-1H-imidazole Hydrochloride (1:2)]: 38 nM; for `Cc1nccn1Cc1cncc(-c2ccc(Cl)c(C(F)(F)F)c2)c1` [Example 141, 3-(4-Chloro-3-trifluoromethyl-phenyl)-5-(-2-methyl-imidazol-1-yl-methyl)-pyridine Hydrochloride (1:1)]: 39 nM.
In data set [1], `Cc1ccc(-c2cncc(Cn3ccnc3C)c2)cc1C` [Example 130, 3-(3,4-Dimethyl-phenyl)-5-(2-methyl-imidazol-1-yl-methyl)-pyridine Hydrochloride (1:1)] registered an IC50 of 65 nM.
For the compound `Cc1cc(-c2cnc(Cn3ccnc3C)n2C)ccc1F` [Example 230, 5-(4-Fluoro-3-methyl-phenyl)-1-methyl-2-(2-methyl-imidazol-1-ylmethyl)-1-H-imidazole Hydrochloride (1:1)], the IC50 in data set [1] stood at 84 nM.
`CSc1ccc(-n2cnc(Cn3ccnc3C)c2)cc1` [Example 27] came in with an IC50 in data set [1] of 27 nM.

Broadly, the IC50 is the concentration at which inhibition is half-maximal. Higher therefore signals a need for much substance. One may read the melting point as the temperature, or range, at which the solid turns liquid.

(Values after patent US6667335B2, “Imidazole derivatives” (Hoffmann-La Roche Inc., priority 2001, dated 2003).)
